According to PMC9116245, “New 1,2,3-triazole linked ciprofloxacin-chalcones induce DNA damage by inhibiting human topoisomerase I& II and tubulin polymerization” (Journal of Enzyme Inhibition and Medicinal Chemistry, 2022):
Read-outs that look alike come from different tables or passages of the source.

Key:
IGROV1 = format: cell-based; conditions: Homo sapiens, IGROV-1
MDA-MB-435 = format: cell-based; conditions: Homo sapiens
SK-MEL-2 = format: cell-based; conditions: Homo sapiens
HCC-2998 = format: cell-based; conditions: Homo sapiens
TK-10 = format: cell-based; conditions: Homo sapiens
U251 = format: cell-based; conditions: Homo sapiens
K-562 = format: cell-based, human
SW-620 = format: cell-based; conditions: Homo sapiens
T-47D = format: cell-based; conditions: Homo sapiens, T47D
MCF7 = format: cell-based, human
Topo IIα = molecular target: T1, Topo IIα (Homo sapiens, UniProt P11388); test: Human Topoisomerase II assay kit (TG1001); format: biochemical; conditions: 10 µM
T1 construct: purchased Topogen Inc. TG1001
T1 sequence (P11388 whole entry): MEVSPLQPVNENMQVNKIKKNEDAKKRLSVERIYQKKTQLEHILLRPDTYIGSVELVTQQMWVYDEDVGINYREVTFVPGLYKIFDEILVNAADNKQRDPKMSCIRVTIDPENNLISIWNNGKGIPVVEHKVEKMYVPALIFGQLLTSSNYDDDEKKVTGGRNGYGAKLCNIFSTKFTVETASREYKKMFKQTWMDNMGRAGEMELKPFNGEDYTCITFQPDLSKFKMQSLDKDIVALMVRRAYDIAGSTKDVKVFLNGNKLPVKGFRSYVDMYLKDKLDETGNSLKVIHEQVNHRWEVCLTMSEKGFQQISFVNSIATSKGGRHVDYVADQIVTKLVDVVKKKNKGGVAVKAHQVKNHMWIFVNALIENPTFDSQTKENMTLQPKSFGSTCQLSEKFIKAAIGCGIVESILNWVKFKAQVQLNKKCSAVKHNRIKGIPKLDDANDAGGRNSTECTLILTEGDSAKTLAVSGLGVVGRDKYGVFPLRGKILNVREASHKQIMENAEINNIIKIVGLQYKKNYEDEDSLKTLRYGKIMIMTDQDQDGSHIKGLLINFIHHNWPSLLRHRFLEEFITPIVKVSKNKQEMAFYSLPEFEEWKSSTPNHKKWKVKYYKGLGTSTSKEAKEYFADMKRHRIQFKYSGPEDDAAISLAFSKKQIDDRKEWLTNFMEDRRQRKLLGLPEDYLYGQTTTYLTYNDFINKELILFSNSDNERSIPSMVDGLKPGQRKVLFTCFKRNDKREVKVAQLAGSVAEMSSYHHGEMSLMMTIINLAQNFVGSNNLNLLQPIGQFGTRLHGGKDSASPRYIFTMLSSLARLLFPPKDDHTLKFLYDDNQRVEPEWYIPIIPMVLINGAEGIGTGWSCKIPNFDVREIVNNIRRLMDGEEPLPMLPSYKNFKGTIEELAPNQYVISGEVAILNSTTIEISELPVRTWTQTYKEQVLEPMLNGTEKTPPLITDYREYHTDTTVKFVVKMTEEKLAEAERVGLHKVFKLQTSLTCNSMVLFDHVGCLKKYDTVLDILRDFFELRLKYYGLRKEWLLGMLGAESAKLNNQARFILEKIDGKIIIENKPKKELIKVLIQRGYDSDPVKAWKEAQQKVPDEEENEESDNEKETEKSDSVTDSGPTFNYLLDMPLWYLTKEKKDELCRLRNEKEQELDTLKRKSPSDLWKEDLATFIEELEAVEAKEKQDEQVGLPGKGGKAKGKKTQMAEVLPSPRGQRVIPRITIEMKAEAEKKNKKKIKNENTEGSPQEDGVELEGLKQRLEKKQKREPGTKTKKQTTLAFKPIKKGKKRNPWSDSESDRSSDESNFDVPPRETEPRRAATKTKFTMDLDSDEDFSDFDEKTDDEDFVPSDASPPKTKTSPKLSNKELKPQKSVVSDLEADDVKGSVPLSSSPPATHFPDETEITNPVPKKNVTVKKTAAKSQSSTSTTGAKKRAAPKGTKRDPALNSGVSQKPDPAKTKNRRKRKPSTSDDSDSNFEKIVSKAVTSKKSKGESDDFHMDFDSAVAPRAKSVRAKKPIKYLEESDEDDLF
Experimental: Second, the inhibitory activity of Topo IIα was evaluated for compounds 4a, 4b, 4e, 4i, and 4j utilising Human Topoisomerase II assay kit (TG1001, Topogen Inc.). […] The above results are compatible with our design of these hybrids as Top-II inhibitors.
The inhibitory activity of the selected ciprofloxacin hybrids on human Top-II was tested using a Human Topoisomerase II assay kit (TG1001, Topogen Inc.). In this assay, 1% agarose gel was used, and the compounds were tested at two different concentrations, 10 and 100 µM. Also, etoposide was used as a positive control in this experiment. The assay was performed according to the manufacturer’s protocol. The image of the electrophoretic gel was captured using an imaging system (iBright-CL1500, Thermo Fisher Scientific).

UO-31 = format: cell-based; conditions: Homo sapiens
[1] = test system: Human Embryonic Kidney (HEK) 293 cells; test: Cytotoxicity assay with non-cancerous cells (MTS); format: cell-based; conditions: HEK293 versus cancer cells
Experimental: To evaluate the selectivity and safety profile of the synthesised CP hybrids, a cytotoxicity experiment of compounds 4a, 4b, 4e, 4i, and 4j was performed using normal Human Embryonic Kidney (HEK) 293 cells.
To evaluate the selectivity and safety profile of the synthesised ciprofloxacin-chalcone hybrids, a cytotoxicity experiment was performed using a non-cancerous cell line. Briefly, Human Embryonic Kidney (HEK) 293 cells (ATCC, Manassas, VA, USA) were cultured in a Dulbecco’s Modified Eagle Medium (DEMEM) supplemented with 1 mM sodium pyruvate, 10 mM HEPES buffer solution, 2 mM GlutaMAX (Gibco, Grand Island, NY, USA), 50 µg/mL gentamycin sulphate (Dubuque, IA, USA), and 10% foetal bovine serum (ThermoFisher Scientific, USA). Cells were seeded in 96-well plates and incubated overnight in a humidified atmosphere with 5% CO2 at 37 °C. After 24 h, cells were treated with different concentrations (0.01–100 µM) of ciprofloxacin-chalcone hybrids. Also, DMSO and doxorubicin were used as negative and positive controls, respectively. After 72 h, old medium containing treatments were removed, and fresh medium and MTS reagents (CellTiter 96® AQueous One Solution Cell Proliferation Assay, Promega, Madison, WI, USA) were added. […] After 2 h, the absorbance was measured at 490 nm using a Spectra Max plus 384 Microplate reader (Molecular Devices, Sunnyvale, CA, USA) [74]. […]

HL-60(TB) = format: cell-based; conditions: Homo sapiens
NCI-H23 = format: cell-based; conditions: Homo sapiens
SN12C = format: cell-based; conditions: Homo sapiens
NCI-H522 = format: cell-based; conditions: Homo sapiens
UACC-62 = format: cell-based; conditions: Homo sapiens
A498 = format: cell-based; conditions: Homo sapiens
NCI/ADR-RES = format: cell-based; conditions: Homo sapiens
[2] = test system: Melanoma (cell line name not given); format: cell-based; conditions: Homo sapiens, under Melanoma
OVCAR-8 = format: cell-based; conditions: Homo sapiens
SK-MEL-28 = format: cell-based; conditions: Homo sapiens
[3] = test system: 59 human cancer cell-lines; format: cell-based
LOX IMVI = format: cell-based; conditions: Homo sapiens
MOLT-4 = format: cell-based; conditions: Homo sapiens
MDA-MB-231/ATCC = format: cell-based
SK-MEL-5 = format: cell-based; conditions: Homo sapiens
SF-539 = format: cell-based; conditions: Homo sapiens
PC-3 = format: cell-based; conditions: Homo sapiens
NCI-H226 = format: cell-based; conditions: Homo sapiens
HOP-92 = format: cell-based; conditions: Homo sapiens
DU-145 = format: cell-based; conditions: Homo sapiens
HS 578T = format: cell-based
HCT-116 = format: cell-based, human
HOP-62 = format: cell-based; conditions: Homo sapiens
SF-295 = format: cell-based; conditions: Homo sapiens
[4] = read-out: LC50 (the source's name)
[5] = panel mean graph midpoint, Units Molar

## COc1cc(/C=C/C(=O)c2ccc(-n3cc(CN4CCN(c5cc6c(cc5F)c(=O)c(C(=O)O)cn6C5CC5)CC4)nn3)cc2)cc(OC)c1OC [Compound 4j, (E)-1-cyclopropyl-6-fluoro-4-oxo-7–(4-((1–(4-(3-(3,4,5-trimethoxyphenyl)acryloyl)phenyl)-1H-1,2,3-triazol-4-yl)methyl)piperazin-1-yl)-1,4-dihydroquinoline-3-carboxylic acid]
IGROV1
  GI50: 1.64 µM
MDA-MB-435
  GI50: 1.49 µM
MDA-MB-435; [4]
  CC50: > 100 µM
SK-MEL-2
  GI50: 21.1 µM
SK-MEL-2; [4]
  CC50: > 100 µM
HCC-2998
  GI50: 1.73 µM
TK-10
  GI50: 5.61 µM
TK-10; [4]
  CC50: > 100 µM
U251; U-251
  GI50: 1.48 µM
U251; U-251, read-out: LC50 (the source's name)
  CC50: > 100 µM
K-562
  GI50: 0.97 µM
K-562; Homo sapiens, K562
  GI50: 0.977 µM
K-562; Homo sapiens, K562, read-out: LC50 (the source's name)
  CC50: > 100 µM
SW-620
  GI50: 1.37 µM
SW-620; [4]
  CC50: > 100 µM
T-47D
  GI50: 3.16 µM
T-47D; [4]
  CC50: > 100 µM
MCF7; Homo sapiens, MCF7, MCF7
  GI50: 0.396 µM
MCF7; Homo sapiens, MCF7, read-out: LC50 (the source's name)
  CC50: > 100 µM
MCF7; MCF7
  GI50: 0.39 µM
Topo IIα
  Topo-II inhibitory activity: stronger inhibitory activity than 4b, 4i, and ETO
UO-31
  GI50: 1.73 µM
UO-31; [4]
  CC50: 30.5 µM
[1]
  selectivity index compared with Doxorubicin: six-fold better
HL-60(TB)
  GI50: 3.18 µM
HL-60(TB); [4]
  CC50: > 100 µM
NCI-H23
  GI50: 2.97 µM
NCI-H23; [4]
  CC50: > 100 µM
SN12C
  GI50: 2.66 µM
SN12C; [4]
  CC50: 46.2 µM
NCI-H522
  GI50: 4.25 µM
  LC50: > 100 µM
UACC-62
  GI50: 2.83 µM
UACC-62; [4]
  CC50: 57.7 µM
A498
  GI50: 4.18 µM
A498; [4]
  CC50: 39.8 µM
NCI/ADR-RES
  GI50: > 100 µM
NCI/ADR-RES; [4]
  CC50: > 100 µM
[2]
  GI50: 1.73 µM
OVCAR-8
  GI50: 4.03 µM
OVCAR-8; [4]
  CC50: > 100 µM
SK-MEL-28
  GI50: 2.77 µM
  LC50: 78.9 µM
[3]; Homo sapiens, range over all cancer cell lines
  GI50: 0.21 to 21.1 µM
[3]; [5]
  Log10GI50 _MID: -5.58
  Log10LC50 _MID: -4.06
  Log10TGI _MID: -4.58
LOX IMVI
  GI50: 1.57 µM
LOX IMVI; [4]
  CC50: > 100 µM
MOLT-4
  GI50: 3.32 µM
MOLT-4; [4]
  CC50: > 100 µM
MDA-MB-231/ATCC; Homo sapiens, MDA-MB-231, MDA-MB231/ATCC
  GI50: 3.2 µM
MDA-MB-231/ATCC; Homo sapiens, MDA-MB-231/ATCC, read-out: LC50 (the source's name)
  CC50: > 100 µM
MDA-MB-231/ATCC; MDA-MB231/ATCC
  TGI: >100 µM
MDA-MB-231/ATCC; MDA-MB-231/ATCC
  TGI: > 1.00E-4 Molar
SK-MEL-5
  GI50: 2.64 µM
SK-MEL-5; [4]
  CC50: > 100 µM
SF-539
  GI50: 1.91 µM
SF-539; [4]
  CC50: 10.3 µM
PC-3
  GI50: 2.54 µM
PC-3; [4]
  CC50: > 100 µM
NCI-H226
  GI50: 2.39 µM
NCI-H226; [4]
  CC50: > 100 µM
HOP-92
  GI50: 11.7 µM
HOP-92; [4]
  CC50: > 100 µM
DU-145
  GI50: 3.67 µM
  LC50 (lethal concentration 50%): > 100 µM
HS 578T; HS 578 T
  TGI: >100 µM
HS 578T; HS 578T
  TGI: > 1.00E-4 Molar
HS 578T; Homo sapiens, HS 578T
  GI50: 3.91 µM
HS 578T; Homo sapiens, HS 578T, read-out: LC50 (the source's name)
  CC50: > 100 µM
HCT-116; HCT-116
  GI50: 0.21 µM
HCT-116; Homo sapiens, HCT-116, HCT-116
  GI50: 0.206 µM
HCT-116; Homo sapiens, HCT-116, HCT116, SRB assay
  IC50: 0.2 µM
HOP-62
  GI50: 2.49 µM
HOP-62; [4]
  CC50: > 100 µM
SF-295
  GI50: 2.91 µM
SF-295; [4]
  CC50: > 100 µM

## O=C(/C=C/c1ccccc1)c1ccc(-n2cc(CN3CCN(c4cc5c(cc4F)c(=O)c(C(=O)O)cn5C4CC4)CC3)nn2)cc1 [Compound 4a, (E) 7-(4-((1–(4-Cinnamoylphenyl)-1H-1,2,3-triazol-4-yl)methyl)piperazin-1-yl)-1-cyclopropyl-6-fluoro-4-oxo-1,4-dihydroquinoline-3-carboxylic acid]
Topo IIα
  Topo-II inhibitory activity: stronger inhibitory activity than 4b, 4i, and ETO

## O=C(/C=C/c1ccc(F)cc1)c1ccc(-n2cc(CN3CCN(c4cc5c(cc4F)c(=O)c(C(=O)O)cn5C4CC4)CC3)nn2)cc1 [Compound 4e, (E)-1-cyclopropyl-6-fluoro-7–(4-((1–(4-(3-(4-fluorophenyl)acryloyl)phenyl)-1H-1,2,3-triazol-4-yl)methyl)piperazin-1-yl)-4-oxo-1,4-dihydroquinoline-3-carboxylic acid]
Topo IIα
  Topo-II inhibitory activity: stronger inhibitory activity than 4b, 4i, and ETO
